Experimental data: PMC9775191, “A Subset Screen of the Compounds Australia Scaffold Library Identifies 7-Acylaminodibenzoxazepinones as Potent and Selective Hits for Anti-Giardia Drug Discovery” (Biomedicines, 2022)

System: G. duodenalis BRIS/91/HEPU/1279
Assay: Primary Giardia screen at 10 µM (live-cell imaging, automated counting)
Type: cell-based, Giardia duodenalis
Conditions: for % Inhibition n=1 24h / % Inhibition n=1 48h: first singlicate assay; for % Inhibition n=2 24h / % Inhibition n=2 48h: re-assessment
Summary of the method: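 Compounds were tested once each at 10 μM final (0.2% DMSO) in culture medium under 3% O2, 5% CO2 in N2. Growth was read at 24 and 48 h by live-cell imaging with automated counting, and inhibition expressed as percent growth versus 0.2% DMSO vehicle after media-only background subtraction.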

| Structure (SMILES) | % Inhibition n=1 48h [%] | further results |
| --- | --- | --- |
| COc1ccc(Nc2nc(-c3nnn(-c4ccc(F)cc4F)c3C)ns2)cc1OC [SN00798157] | 52.7 | Average % Inhibition 24h: 11.4%; % Inhibition n=1 24h: 18.3%; % Inhibition n=2 24h: 4.5%; Average % Inhibition 48h: 26.3%; % Inhibition n=2 48h: 0.0% |
| CCc1ccc(CNC(=O)c2cc3ccncc3n2C)cc1 [SN00798182] | 20.1 |  |
| CC(NC(=O)c1cc2ccncc2[nH]1)c1ccccc1 (stereo not drawn) [SN00798186] | 4.2 |  |
| COc1ccc(OC)c(CNC(=O)c2ccc3[nH]c4c(c3c2)CN(C(C)=O)CC4)c1 [SN00798195] | 0.0 |  |
| O=C(NCCc1ccccn1)c1ccc2[nH]c3c(c2c1)CN(C(=O)C1CCC1)CC3 [SN00798214] | 0.0 |  |
| CCN1CCc2[nH]c3ccc(NC(=O)c4ccn(CC)n4)cc3c2C1 [SN00798224] | 1.1 |  |
| COC(=O)c1ccccc1NC(=O)Nc1ccc2[nH]c3c(c2c1)CN(C(C)C)CC3 [SN00798231] | 4.3 |  |
| CNC(=O)N1CCC(c2nc(C)c(C(=O)NCCCOC)s2)CC1 [SN00798240] | 6.4 |  |
| Cc1nc(C2CCN(C(=O)Nc3ccccc3)CC2)sc1C(=O)N1CCCCCC1 [SN00798241] | 0.0 |  |
| Cc1ccc(-c2nc(-c3cccc(-c4ccn[nH]4)c3)no2)cc1 [SN00798298] | 55.6 | Average % Inhibition 24h: 6.3%; % Inhibition n=1 24h: 9.4%; % Inhibition n=2 24h: 3.2%; Average % Inhibition 48h: 41.5%; % Inhibition n=2 48h: 27.4% |
| Cc1cc(-c2cc(S(=O)(=O)N(CCN(C)C)Cc3cccs3)c(C)s2)[nH]n1 [SN00798340] | 13.6 |  |
| Cc1nc(-c2ccc3c(c2)n(CC(=O)NC2CCN(Cc4ccccc4)CC2)c(=O)n3C(C)C)no1 [SN00798376] | 5.7 |  |
| Cc1nnc(-c2ccc3ccn(CC(=O)NC4CC4)c3c2)o1 [SN00798392] | 0.0 |  |
| CCc1nc(-c2cc(S(=O)(=O)NCc3ccc(F)c(Cl)c3)c(C)s2)cs1 [SN00798443] | 50.2 | Average % Inhibition 24h: 15.2%; % Inhibition n=1 24h: 16.9%; % Inhibition n=2 24h: 13.6%; Average % Inhibition 48h: 43.8%; % Inhibition n=2 48h: 37.5% |
| COc1ccc(C(=O)Nc2cc(-c3nc(C)cs3)sc2C)cc1OC [SN00798474] | 27.2 |  |
| COc1ccc(-c2nc(CS(=O)(=O)c3ccc(C)cc3)no2)c(C)c1 [SN00798481] | 11.0 |  |
| Cc1sc2cc(C(=O)NC(C)(C)C)[nH]c2c1CN1CCOCC1 [SN00798503] | 2.4 |  |
| Cc1sc2cc(C(=O)N3CCN(c4ccc(F)cc4)CC3)[nH]c2c1CN1CCOCC1 [SN00798508] | 27.9 |  |
| COc1ccc(CNC(=O)c2[nH]c3cc(C)sc3c2CN2CCCC2)cc1 [SN00798517] | 35.5 |  |
| CC(C)Cn1cc2c3c(cccc31)CN(C(=O)Cc1cccs1)CC2 [SN00798552] | 35.1 |  |
| COCCn1cc2c3c(cccc31)CN(C(=O)c1cccc(Cl)c1)CC2 [SN00798558] | 26.2 |  |
| Cn1cc2c3c(cccc31)CN(C(=O)NC(C)(C)C)CC2 [SN00798578] | 7.2 |  |
| COCCn1cc2c3c(cccc31)CN(C(=O)Nc1ccccc1F)CC2 [SN00798581] | 22.0 |  |
| Cc1nnc(-c2cc(NS(=O)(=O)c3ccc(Cl)cc3)c(C)s2)o1 [SN00798629] | 2.8 |  |
| COc1ccccc1-c1nc(C2CCCN(C(=O)c3ccc(C(C)C)cc3)C2)no1 (stereo not drawn) [SN00798647] | 0.0 |  |
| Cc1cc(C)cc(C(=O)NCc2ccc3c(c2)nnn3C)c1 [SN00798663] | 0.0 |  |

| Structure (SMILES) | % Inhibition n=1 48h [%] | further results |
| --- | --- | --- |
| Cn1nnc2cc(CNC(=O)c3ccc(F)cc3)ccc21 [SN00798670] | 3.3 |  |
| CCCNC(=O)c1cn(C)nc1S(=O)(=O)N1CCC(C)CC1 [SN00798692] | 3.5 |  |
| CCn1cc(C(=O)Nc2ccc(F)cc2)c(S(=O)(=O)N2CCC(C)CC2)n1 [SN00798700] | 0.0 |  |
| CCOC(=O)c1ccc(NC(=O)Cn2c(=O)cc(-c3nc(C)no3)c3ccccc32)cc1 [SN00798707] | 2.1 |  |
| CC(C)c1noc(-c2cc(=O)n(CC(=O)N3CCCC3)c3ccccc23)n1 [SN00798718] | 0.0 |  |
| Nc1nc(N2CCN(C(=O)c3ccco3)CC2)ncc1C(=O)Nc1ccccc1 [SN00798744] | 0.0 |  |
| COc1ccc(NC(=O)c2cnc(N3CCN(CC(=O)N4CCCC4)CC3)nc2N)cc1 [SN00798764] | 0.0 |  |
| O=S(=O)(c1cccs1)N1CCc2[nH]cnc2C1 [SN00798784] | 0.0 |  |
| Cc1cc(C)c(S(=O)(=O)N2CCc3[nH]cnc3C2)cc1C [SN00798786] | 0.0 |  |
| COc1c(C(=O)Nc2ccccc2)oc2ccc(NC(=O)C3CCCCC3)cc12 [SN00798797] | 3.8 |  |
| COc1c(C(=O)Nc2ccc(C)cc2)oc2ccc(NC(=O)c3ccc(C)s3)cc12 [SN00798811] | 19.9 |  |
| CC(=O)N1CCc2cc(C)c(S(=O)(=O)NC3CC3)cc21 [SN00798831] | 4.3 |  |
| Cc1cc2c(cc1S(=O)(=O)NC(C)C)N(C(=O)C1CC1)CC2 [SN00798844] | 15.5 |  |
| CC(C)c1csc(-c2ccc(S(=O)(=O)NCc3ccc(Cl)cc3)s2)n1 [SN00798864] | 0.0 |  |
| CCC(C)NC(=O)C1CCN(c2cnc(N3CCSCC3)nc2)CC1 (stereo not drawn) [SN00798903] | 12.6 |  |
| CCCC(=O)Nc1ccc2c(c1)CN(C(=O)Cc1ccccc1C)C(C(=O)N(C)C)C2 (stereo not drawn) [SN00798922] | 11.7 |  |
| CC(=O)Nc1ccc2c(c1)CN(C(=O)C1CCCCC1)C(C(=O)N1CCCCC1)C2 (stereo not drawn) [SN00798930] | 8.7 |  |
| CCc1c(C2CCN(C(=O)c3cnccn3)CC2)noc1N [SN00798959] | 12.1 |  |
| CCCn1c(C2CCN(C(=O)Nc3ccc(F)cc3)CC2)cc(=O)n2nccc12 [SN00798971] | 19.1 |  |
| Cn1c(C2CCN(C(=O)Nc3ccccc3F)CC2)cc(=O)n2nccc12 [SN00798982] | 3.2 |  |
| COc1ccc(-c2ncc3c(n2)CCN(C(=O)c2ccccc2C(F)(F)F)C3)cc1 [SN00799000] | 0.0 |  |
| O=C(c1cccc(Br)c1)N1CCc2nc(-c3ccc(F)cc3)ncc2C1 [SN00799013] | 13.8 |  |
| O=S(=O)(c1cccc2cccnc12)N1CCc2nc(-c3ccc(F)cc3)ncc2C1 [SN00799070] | 3.1 |  |
| COc1ccc(S(=O)(=O)N2CCc3nc(-c4ccccc4)ncc3C2)cc1 [SN00799076] | 6.9 |  |
| CCCN(C)C(=O)c1ccc(-c2ccnc(N3CCCCC3)n2)cc1 [SN00799110] | 0.0 |  |
| CCC(C)NC(=O)CC1Sc2ncccc2N(C)C1=O (stereo not drawn) [SN00799120] | 11.7 |  |

| Structure (SMILES) | % Inhibition n=1 48h [%] | further results |
| --- | --- | --- |
| O=C(Cn1c(=O)c2nncn2c2ncccc21)N1CCN(c2cccc(Cl)c2)CC1 [SN00799155] | 17.9 |  |
| CCn1nnc2c(C(=O)NCCC3=CCCCC3)c(C)sc2c1=O [SN00799184] | 2.6 |  |
| CCCNC(=O)c1cncc(-c2cccc(NC(=O)CC)c2)c1 [SN00799189] | 0.0 |  |
| Cc1ccccc1C(=O)N1CCC(Cc2nnc(-c3ccccc3)o2)CC1 [SN00799218] | 12.0 |  |
| O=C(N1CCC(CCOCc2cccc(F)c2)CC1)C1(c2ccccc2)CC1 [SN00799224] | 0.0 |  |
| CCOC(=O)c1cccc(Nc2ncccc2S(N)(=O)=O)c1 [SN00799296] | 70.8 | Average % Inhibition 24h: 14.5%; % Inhibition n=1 24h: 29.1%; % Inhibition n=2 24h: 0.0%; Average % Inhibition 48h: 35.4%; % Inhibition n=2 48h: 0.0% |
| CC(C)(C)NC(=O)c1cc(-c2cccnc2)[nH]n1 [SN00799308] | 15.5 |  |
| O=C(c1cc(-c2cccnc2)[nH]n1)N1CCCC1 [SN00799309] | 13.7 |  |
| Cc1cn2c(S(=O)(=O)N3CCN(c4ccc(F)cc4)CC3)c(C(C)C)nc2s1 [SN00799325] | 19.4 |  |
| COc1ccc(CNS(=O)(=O)c2c(C)nc3sc(C)nn23)cc1 [SN00799344] | 4.3 |  |
| CC(=O)c1cccc(NC(=O)CN2CCC(c3nc(-c4ccccc4)no3)CC2)c1 [SN00799373] | 0.0 |  |
| O=C(CN1CCC(c2nc(-c3ccc(F)cc3)no2)CC1)NCc1ccccc1 [SN00799393] | 0.0 |  |
| O=C(CCn1ccn2nc(-c3ccccc3Cl)cc2c1=O)NCc1ccc(F)cc1 [SN00799415] | 0.0 |  |
| COc1ccc(-c2cccc(NC(=O)c3ccccc3Br)c2)nn1 [SN00799416] | 16.0 |  |
| Cc1nc(-c2ccccn2)cc2nn(CC(=O)N3CCC(Cc4ccccc4)CC3)c(=O)n12 [SN00799441] | 4.9 |  |
| Cc1ccc(NC(=O)c2cnc3c(c2)c(=O)n(C)c(=O)n3-c2ccccc2)cc1 [SN00799453] | 0.0 |  |
| Cc1ccc(NC(=O)CN2N=C(C(=O)Nc3ccc(F)cc3)CCC2=O)cc1F [SN00799502] | 8.0 |  |
| O=C(COc1ccc(F)cc1)N1CCN(c2nc(CN3CCCC3)cs2)CC1 [SN00799511] | 1.1 |  |
| Cc1cccc(-c2nc3sc(N4CCCCC4)nn3c2NC(=O)C2CC2)c1 [SN00799546] | 23.2 |  |
| CN(Cc1ccccc1)C(=O)c1cccc2c1CCN2C(=O)Nc1ccccc1 [SN00799558] | 0.0 |  |
| Cn1c(C(=O)N2CCN(c3ccccc3)CC2)cc2c1CCN(Cc1ccccc1)C2 [SN00799590] | 1.6 |  |
| Cc1cccc(CN2CCc3c(cc(C(=O)NC(C)(C)C)n3C)C2)c1 [SN00799594] | 0.0 |  |
| Cc1csc(-c2ccc(CNC(=O)c3n[nH]c4ccccc34)cc2)n1 [SN00799624] | 25.2 |  |
| CSc1ccc(NC(=O)c2cn(C)c3ncccc23)cc1 [SN00799688] | 9.5 |  |
